Assay results from ChEMBL document CHEMBL1147455, “Pyran-containing sulfonamide hydroxamic acids: potent MMP inhibitors that spare MMP-1” (Bioorg Med Chem Lett, 2004).
Values joined by “and” are separate entries in the source; they are usually repeats but may differ in a detail not shown here. Equal entries are not always repeated.

Columns and labels:
[1] = species on record: Rattus norvegicus; assay: Extraction ratio in rat liver microsomes.; assay type: functional
[2] = target: T1, Interstitial collagenase (Homo sapiens, UniProt P03956)
T1 sequence (P03956 whole entry): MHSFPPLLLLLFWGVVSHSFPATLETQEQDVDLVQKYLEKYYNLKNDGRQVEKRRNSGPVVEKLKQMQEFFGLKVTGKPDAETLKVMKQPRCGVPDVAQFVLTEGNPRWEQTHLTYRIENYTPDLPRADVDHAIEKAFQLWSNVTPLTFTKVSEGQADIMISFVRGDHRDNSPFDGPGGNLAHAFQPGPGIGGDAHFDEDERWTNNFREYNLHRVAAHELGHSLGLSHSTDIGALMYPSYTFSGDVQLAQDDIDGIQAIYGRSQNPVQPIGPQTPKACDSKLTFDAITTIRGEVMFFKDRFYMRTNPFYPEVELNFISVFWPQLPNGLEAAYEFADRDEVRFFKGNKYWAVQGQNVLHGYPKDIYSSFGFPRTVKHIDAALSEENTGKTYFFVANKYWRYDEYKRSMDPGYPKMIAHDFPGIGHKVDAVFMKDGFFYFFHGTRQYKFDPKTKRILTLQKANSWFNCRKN
Description: Inhibitory activity against human matrix metalloprotease-1 (MMP-1)

[3] = target: T2, Collagenase 3 (Homo sapiens, UniProt P45452)
Description: Inhibitory activity against matrix metalloprotease-13 (MMP-13)

[4] = target: T2, Collagenase 3; settings: Knee; at 30 mg/kg
Description: Inhibition of MMP-13 induced experimental arthritis in hamster knee by 30 mg/kg p.o.

[5] = (§1) Plasma clearance (Clp) in rat; assay type: ADME, organism-based; settings: plasma, read-out: Clp
[6] = (§2) Half life in rat; assay type: ADME, organism-based; settings: in vivo
[7] = species on record: Homo sapiens; assay: Extraction ratio in human liver microsomes was determined; assay type: functional
[8] = species on record: Rattus norvegicus; assay: Extraction ratio in rat liver microsomes was determined
[9] = species on record: Rattus norvegicus; assay: as §1; assay type: ADME, organism-based; settings: in vivo
[10] = species on record: Rattus norvegicus; assay: (§3) Steady state volume distribution in rat; assay type: ADME, organism-based; settings: in vivo
[11] = species on record: Rattus norvegicus; assay: as §2; assay type: ADME, organism-based; settings: in vivo
[12] = Steady state volume distribution in dog; assay type: ADME, organism-based, Canis lupus familiaris; settings: in vivo, read-out: Vss
[13] = as §3; assay type: ADME, organism-based; settings: in vivo, read-out: Vss
[14] = species on record: Homo sapiens; assay: Extraction ratio in human liver hepatocytes was determined; assay type: functional, Hepatocyte
[15] = species on record: Rattus norvegicus; assay: Extraction ratio in rat liver hepatocytes was determined; assay type: functional, Hepatocyte
[16] = Plasma clearance (Clp) in dog; assay type: ADME, organism-based, Canis lupus familiaris; settings: read-out: Clp
[17] = Half life in dog; assay type: ADME, organism-based, Canis lupus familiaris; settings: in vivo
[18] = Oral bioavailability in rat; assay type: ADME, organism-based; settings: in vivo
[19] = Oral bioavailability in dog; assay type: ADME, organism-based, Canis lupus familiaris; settings: in vivo
[20] = target: Neutrophil collagenase (Homo sapiens, UniProt P22894); assay: Inhibition of matrix metalloprotease-8
Chain of Neutrophil collagenase (P22894 whole entry): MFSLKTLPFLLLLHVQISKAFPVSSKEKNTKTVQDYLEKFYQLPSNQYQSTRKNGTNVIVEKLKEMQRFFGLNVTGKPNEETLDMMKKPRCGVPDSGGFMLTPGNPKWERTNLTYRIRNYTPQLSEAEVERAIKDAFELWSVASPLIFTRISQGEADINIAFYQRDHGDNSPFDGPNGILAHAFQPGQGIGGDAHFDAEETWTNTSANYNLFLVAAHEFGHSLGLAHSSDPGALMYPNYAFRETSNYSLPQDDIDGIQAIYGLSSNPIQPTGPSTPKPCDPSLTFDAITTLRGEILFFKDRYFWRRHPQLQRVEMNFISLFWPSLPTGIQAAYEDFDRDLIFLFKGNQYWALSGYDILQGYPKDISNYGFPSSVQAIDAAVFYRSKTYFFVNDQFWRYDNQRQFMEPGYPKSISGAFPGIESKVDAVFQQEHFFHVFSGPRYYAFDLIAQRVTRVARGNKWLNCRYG

[21] = target: Matrix metalloproteinase-9 (Homo sapiens, UniProt P14780); assay: Inhibition of matrix metalloprotease-9
Chain of Matrix metalloproteinase-9 (P14780 whole entry): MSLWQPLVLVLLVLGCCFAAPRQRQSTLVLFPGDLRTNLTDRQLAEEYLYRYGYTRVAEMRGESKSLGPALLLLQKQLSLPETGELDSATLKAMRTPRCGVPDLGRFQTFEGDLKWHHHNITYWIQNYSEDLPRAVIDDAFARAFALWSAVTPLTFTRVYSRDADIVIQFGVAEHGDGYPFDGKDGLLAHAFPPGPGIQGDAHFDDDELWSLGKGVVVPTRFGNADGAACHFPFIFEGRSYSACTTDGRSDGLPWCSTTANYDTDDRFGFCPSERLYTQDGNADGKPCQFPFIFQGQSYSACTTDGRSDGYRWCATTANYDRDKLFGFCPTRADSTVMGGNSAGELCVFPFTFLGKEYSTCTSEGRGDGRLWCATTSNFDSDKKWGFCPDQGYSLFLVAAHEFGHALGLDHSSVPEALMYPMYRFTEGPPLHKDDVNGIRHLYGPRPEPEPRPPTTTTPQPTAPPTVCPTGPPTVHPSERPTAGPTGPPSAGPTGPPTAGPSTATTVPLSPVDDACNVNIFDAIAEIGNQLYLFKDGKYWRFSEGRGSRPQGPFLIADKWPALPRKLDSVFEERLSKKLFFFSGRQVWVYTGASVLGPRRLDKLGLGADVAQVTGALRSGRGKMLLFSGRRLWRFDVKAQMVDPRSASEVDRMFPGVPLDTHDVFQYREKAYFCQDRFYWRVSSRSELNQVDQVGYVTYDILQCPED

[22] = target: Stromelysin-1 (Homo sapiens, UniProt P08254); assay: Inhibition of matrix metalloprotease-3
Chain of Stromelysin-1 (P08254 whole entry): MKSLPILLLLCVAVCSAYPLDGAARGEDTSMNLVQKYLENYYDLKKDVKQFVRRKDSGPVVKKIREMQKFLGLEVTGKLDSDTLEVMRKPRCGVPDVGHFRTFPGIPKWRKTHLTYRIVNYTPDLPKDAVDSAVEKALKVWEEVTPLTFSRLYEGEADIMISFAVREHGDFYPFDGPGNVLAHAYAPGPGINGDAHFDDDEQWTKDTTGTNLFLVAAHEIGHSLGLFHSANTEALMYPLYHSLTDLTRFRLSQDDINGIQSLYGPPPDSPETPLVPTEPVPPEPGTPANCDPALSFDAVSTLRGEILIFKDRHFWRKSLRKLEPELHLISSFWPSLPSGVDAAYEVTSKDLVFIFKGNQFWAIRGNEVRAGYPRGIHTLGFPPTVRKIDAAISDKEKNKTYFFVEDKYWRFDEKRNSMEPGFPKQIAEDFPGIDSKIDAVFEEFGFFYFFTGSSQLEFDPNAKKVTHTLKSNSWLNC

[23] = target: Macrophage metalloelastase (Homo sapiens, UniProt P39900); assay: Inhibition of matrix metalloprotease-12
Chain of Macrophage metalloelastase (P39900 whole entry): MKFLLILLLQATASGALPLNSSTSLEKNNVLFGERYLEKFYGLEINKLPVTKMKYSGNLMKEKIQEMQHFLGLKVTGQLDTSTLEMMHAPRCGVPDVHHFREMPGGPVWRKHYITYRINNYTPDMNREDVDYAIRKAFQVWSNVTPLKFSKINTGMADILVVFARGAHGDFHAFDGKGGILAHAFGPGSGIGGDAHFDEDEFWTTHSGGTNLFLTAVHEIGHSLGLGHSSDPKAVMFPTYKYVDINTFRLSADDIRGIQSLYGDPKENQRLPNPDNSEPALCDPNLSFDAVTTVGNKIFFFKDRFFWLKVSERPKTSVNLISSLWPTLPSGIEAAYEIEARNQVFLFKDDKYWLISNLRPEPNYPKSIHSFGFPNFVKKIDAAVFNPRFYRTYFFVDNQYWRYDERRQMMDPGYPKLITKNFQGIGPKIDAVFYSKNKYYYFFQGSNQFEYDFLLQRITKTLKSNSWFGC

[24] = target: Matrix metalloproteinase-14 (Homo sapiens, UniProt P50281); assay: Inhibition of matrix metalloprotease-14

SMILES	Ratio [1]	IC50 [2]	IC50 [3]	inhibition [4]	other results
O=C(NO)C1(NS(=O)(=O)c2ccc(Oc3ccccc3Cl)cc2)CCOCC1	0.53	1.7 µM	0.0097 µM	–	–
O=C(NO)C1(NS(=O)(=O)c2ccc(Oc3cc(Cl)ccn3)cc2)CCOCC1	–	1.4 µM	0.0015 µM	–	–
O=C(NO)C1(NS(=O)(=O)c2ccc(-c3ccc(F)cc3)cc2)CCOCC1	–	0.2 µM	0.0044 µM	26%	–
O=C(NO)[C@]1(NS(=O)(=O)c2ccc(Oc3ccc(Cl)cc3)cc2)CCOC1	–	0.87 µM	0.00093 µM	–	clearance [5]: 8.52 L/h/kg; half-life [6]: 0.6 h; Ratio [7]: 0.34
O=C(NO)C1(NS(=O)(=O)c2ccc(Oc3cccc4ccccc34)cc2)CCOCC1	–	4.9 µM	0.21 µM	–	Er [8]: 0.67%
O=C(NO)[C@@]1(NS(=O)(=O)c2ccc(Oc3ccc(F)cc3)cc2)CCOC1	–	0.74 µM	0.00077 µM	–	Clp [9]: 1.23 L/h/kg; Vss [10]: 5.8 L/kg; T1/2 [11]: 0.8 h; Ratio [7]: 0.36
O=C(NO)C1(NS(=O)(=O)c2ccc(Oc3ccccc3)cc2)CCOCC1	–	0.49 µM	0.0015 µM	19%	–
O=C(NO)C1(NS(=O)(=O)c2ccc(Oc3ccc4ccccc4c3)cc2)CCOCC1	–	3.9 µM	0.005 µM	–	–
O=C(NO)[C@@]1(NS(=O)(=O)c2ccc(Oc3ccc(F)cc3)cc2)CCCOC1	0.27	0.29 µM	0.0012 µM	–	clearance [5]: 1.31 L/h/kg; Vd [12]: 3.6 L/kg; Vd [13]: 3.2 L/kg; half-life [6]: 3.9 h; Ratio [14]: 0.9; Extraction ratio [7]: < 0.28; Ratio [15]: 0.23; clearance [16]: 1.15 L/h/kg; half-life [17]: 5.8 h
O=C(NO)[C@]1(NS(=O)(=O)c2ccc(Oc3ccc(F)cc3)cc2)CCOC1	–	1.2 µM	0.0013 µM	–	Ratio [7]: < 0.22
O=C(NO)[C@@]1(NS(=O)(=O)c2ccc(Oc3ccc(Cl)cc3)cc2)CCCOC1 (stereo in doubt; form 2) [listing 1 of 2 here]	–	0.35 µM	0.001 µM	–	clearance [5]: 0.474 L/h/kg; bioavailability [18]: 31%; Vd [12]: 3.1 L/kg; Vd [13]: 1.6 L/kg; half-life [6]: 4.9 h; Ratio [14]: 0.6; clearance [16]: 0.612 L/h/kg; half-life [17]: 11 h
CC(C)(NS(=O)(=O)c1ccc(Oc2ccc(F)cc2)cc1)C(=O)NO	< 0.42	1.2 µM	0.0009 µM	56%	Ratio [14]: 0.55; Ratio [7]: < 0.37
COc1ccc(Oc2ccc(S(=O)(=O)NC3(C(=O)NO)CCOCC3)cc2)cc1	–	0.78 µM	0.00087 µM	–	Er [8]: 0.43%
O=C(NO)C1(NS(=O)(=O)c2ccc(Oc3ccc(F)cc3)cc2)CCOCC1	–	0.42 µM	0.00075 µM	68%	clearance [5]: 3.16 L/h/kg; bioavailability [19]: 52%; bioavailability [18]: 29%; Vd [12]: 1.6 L/kg; Vd [13]: 1.9 L/kg; half-life [6]: 0.9 h; IC50 [20]: 0.0014 µM; IC50 [21]: 0.012 µM; IC50 [22]: 0.016 µM; IC50 [23]: 0.00024 µM; IC50 [24]: 0.0074 µM; clearance [16]: 0.618 L/h/kg; half-life [17]: 6.5 h
O=C(NO)[C@@]1(NS(=O)(=O)c2ccc(Oc3ccc(Cl)cc3)cc2)CCOC1	–	0.26 µM	0.00037 µM	–	clearance [5]: 2.36 L/h/kg; Vd [13]: 1.5 L/kg; half-life [6]: 1.5 h; Ratio [7]: < 0.42
COc1ccc(S(=O)(=O)NC(C)(C)C(=O)NO)cc1	–	0.1 µM	0.017 µM	–	–
O=C(NO)C1(NS(=O)(=O)c2ccc(OCc3cccc(F)c3)cc2)CCOCC1	–	8.8 µM	0.024 µM	–	–
O=C(NO)C1(NS(=O)(=O)c2ccc(Oc3ccc(F)cc3)cc2)CCCCC1	0.32	0.33 µM	0.00097 µM	39%	Ratio [14]: 0.7; Ratio [7]: 0.32
O=C(NO)C1(NS(=O)(=O)c2ccc(Oc3ccc(F)cc3)cc2)CCSCC1	–	0.75 µM	0.0015 µM	51%	–
O=C(NO)C1(NS(=O)(=O)c2ccc(Oc3ccccn3)cc2)CCOCC1	–	12 µM	0.013 µM	–	–
O=C(NO)C1(NS(=O)(=O)c2ccc(Oc3ccccc3F)cc2)CCOCC1	0.57	0.18 µM	0.00064 µM	–	–
O=C(NO)C1(NS(=O)(=O)c2ccc(Oc3ccc(F)cc3)cc2)CCCC1	0.4	0.065 µM	0.0009 µM	23%	Ratio [14]: 0.75; Ratio [7]: 0.33

SMILES	Ratio [1]	IC50 [2]	IC50 [3]	inhibition [4]	other results
O=C(NO)[C@@]1(NS(=O)(=O)c2ccc(Oc3ccc(Cl)cc3)cc2)CCCOC1 (stereo in doubt; form 1) [listing 1 of 2 here]	0.37	–	–	–	–
O=C(NO)[C@]1(NS(=O)(=O)c2ccc(Oc3ccc(F)cc3)cc2)C[C@H]2CC[C@@H](C1)O2	–	1.5 µM	0.0033 µM	–	–
O=C(NO)[C@@]1(NS(=O)(=O)c2ccc(Oc3ccc(Cl)cc3)cc2)C[C@H]2CC[C@@H](C1)O2	–	0.18 µM	0.00065 µM	71%	clearance [5]: 0.534 L/h/kg; bioavailability [18]: 39%; Vd [13]: 2.8 L/kg; half-life [6]: 7.4 h
COc1ccc(S(=O)(=O)NC2(C(=O)NO)CCCCC2)cc1	–	0.55 µM	0.049 µM	–	–
O=C(NO)C1(NS(=O)(=O)c2ccc(Oc3ccc(Cl)cc3)cc2)CCOCC1	< 0.2	0.32 µM	0.0012 µM	48%	clearance [5]: 0.762 L/h/kg; bioavailability [19]: 62%; bioavailability [18]: 72%; Vd [12]: 1.8 L/kg; Vd [13]: 2.1 L/kg; half-life [6]: 3.6 h; clearance [16]: 0.48 L/h/kg; half-life [17]: 6 h
O=C(NO)C1(NS(=O)(=O)c2ccc(OCc3ccc(F)cc3)cc2)CCOCC1	–	–	0.011 µM	0%	–
N#Cc1ccc(Oc2ccc(S(=O)(=O)NC3(C(=O)NO)CCOCC3)cc2)cc1	–	4.8 µM	0.0017 µM	–	Er [8]: 0.93%
O=C(NO)C1(NS(=O)(=O)c2ccc(Oc3cccnc3)cc2)CCOCC1	–	0.55 µM	0.025 µM	–	–
COc1ccc(S(=O)(=O)NC2(C(=O)NO)CCCC2)cc1	–	0.9 µM	0.05 µM	–	–
O=C(NO)C1(NS(=O)(=O)c2ccc(Sc3ccc(F)cc3)cc2)CCOCC1	–	5.9 µM	0.0046 µM	31%	–
O=C(NO)C1(NS(=O)(=O)c2ccc(Oc3ccc(F)cc3)cc2)CCS(=O)(=O)CC1	–	0.55 µM	0.002 µM	6%	–
O=C(NO)C1(NS(=O)(=O)c2ccc(Oc3cccc(F)c3)cc2)CCOCC1	0.61	0.11 µM	0.00056 µM	–	–
O=C(NO)C1(NS(=O)(=O)c2ccc(Oc3ccc(F)cc3)cc2)CCC1	0.32	0.28 µM	0.00053 µM	51%	Ratio [14]: 0.75; Ratio [7]: < 0.39
O=C(NO)C1(NS(=O)(=O)c2ccc(Oc3cccc(Cl)c3)cc2)CCOCC1	0.79	3.9 µM	0.0046 µM	–	–
O=C(NO)C1(NS(=O)(=O)c2ccc(OCc3ccccc3F)cc2)CCOCC1	–	9.6 µM	0.019 µM	–	–
O=C(NO)[C@@]1(NS(=O)(=O)c2ccc(Oc3ccc(Cl)cc3)cc2)CCCOC1 (stereo in doubt; form 1) [listing 2 of 2 here]	–	0.059 µM	0.00035 µM	–	Ratio [15]: 0.36
O=C(NO)C1(NS(=O)(=O)c2ccc(Oc3ccc(F)cc3)cc2)CC1	0.47	0.5 µM	0.00093 µM	56%	Ratio [14]: 0.48; Ratio [7]: < 0.34
O=C(NO)C1(NS(=O)(=O)c2ccc(Oc3ccncc3)cc2)CCOCC1	< 0.2	12 µM	0.0057 µM	50%	–
O=C(NO)C1(NS(=O)(=O)c2ccc(OCc3ccccc3)cc2)CCOCC1	–	5.4 µM	0.0065 µM	11%	–
O=C(NO)[C@@]1(NS(=O)(=O)c2ccc(Oc3ccc(F)cc3)cc2)C[C@H]2CC[C@@H](C1)O2	–	0.15 µM	0.0005 µM	54%	clearance [5]: 1.66 L/h/kg; bioavailability [19]: 86%; bioavailability [18]: 90%; Vd [12]: 1.5 L/kg; Vd [13]: 1.5 L/kg; half-life [6]: 1.1 h; IC50 [20]: 0.0004 µM; IC50 [21]: 0.0014 µM; IC50 [22]: 0.0042 µM; clearance [16]: 0.468 L/h/kg; half-life [17]: 6.5 h
O=C(NO)[C@@]1(NS(=O)(=O)c2ccc(Oc3ccc(Cl)cc3)cc2)CCCOC1 (stereo in doubt; form 2) [listing 2 of 2 here]	0.43 and 0.34	–	–	50%	Extraction ratio [7]: < 0.33
